Molecular target: T1, wild-type (WT) P450 BM3 heme domain (Priestia megaterium, UniProt P14779)
T1 sequence (P14779 1-464 limits assumed): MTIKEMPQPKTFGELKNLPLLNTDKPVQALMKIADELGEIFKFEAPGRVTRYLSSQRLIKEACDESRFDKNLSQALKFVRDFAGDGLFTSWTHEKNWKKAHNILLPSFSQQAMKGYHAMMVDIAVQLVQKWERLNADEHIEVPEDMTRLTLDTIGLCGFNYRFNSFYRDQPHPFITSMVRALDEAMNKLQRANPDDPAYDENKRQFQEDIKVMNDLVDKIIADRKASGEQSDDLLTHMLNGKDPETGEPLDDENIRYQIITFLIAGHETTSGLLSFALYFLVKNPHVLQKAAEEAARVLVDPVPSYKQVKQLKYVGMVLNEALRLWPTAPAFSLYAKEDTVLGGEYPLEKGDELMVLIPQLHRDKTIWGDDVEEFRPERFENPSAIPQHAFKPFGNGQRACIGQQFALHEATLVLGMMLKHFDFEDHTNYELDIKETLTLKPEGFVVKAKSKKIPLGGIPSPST
Assay: optical titration, type-I difference spectra
Format: binding

- Kd: 280 ± 25 µM
Compound: CCCCCCCCCCCC(=O)O [LA, lauric acid]
